Experimental data from patent publication US6512000B1, “Aminocarbonyl-substituted benzimidazoles having tryptase-inhibitory activity” (Boehringer Ingelheim Pharma KG, priority 1999, dated 2003).
Where a name gives a salt, the structure may show the parent alone.

Key:
rh beta tryptase = molecular target: T1, rh beta tryptase (Homo sapiens, UniProt P20231); assay: Tryptase inhibition test (cleavage of N-p-tosyl-Gly-Pro-Lys-para-nitroaniline, p-nitroaniline measured at 405 nm); format: biochemical; details: pH 7.4, 37° C.; for IC50: concentration at which 50% of the tryptase enzyme activity is inhibited, substrate 0.6 mM
T1 construct: purchased Promega
T1 sequence (P20231 31-275): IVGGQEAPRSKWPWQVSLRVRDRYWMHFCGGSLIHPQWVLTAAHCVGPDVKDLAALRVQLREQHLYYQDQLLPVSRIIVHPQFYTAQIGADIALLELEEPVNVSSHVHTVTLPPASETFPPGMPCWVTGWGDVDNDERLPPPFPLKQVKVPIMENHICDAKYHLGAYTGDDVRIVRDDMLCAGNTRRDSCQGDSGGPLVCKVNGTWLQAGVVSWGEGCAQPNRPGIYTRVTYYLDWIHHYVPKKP
Procedure, shortened: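 Recombinant human beta tryptase (0.91 U/ml) in 100 mM Tris HCl pH 7.4 with 5 mM calcium and 100 mg/ml heparin; compounds pre-incubated 5 min, then 0.6 mM tosyl-Gly-Pro-Lys-pNA added, 5 min at 37 °C. p-Nitroaniline read at 405 nm; % inhibition at 10 μM, IC50 determined when inhibition exceeded 70%.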

[1] = inhibition of rh beta tryptase at 10 μM test substance, substrate N-p-tosyl-Gly-Pro-Lys-para-nitroaniline 0.6 mM, 5 minutes

melting point | inhibition at 10 µM (rh beta tryptase; [1]) | SMILES | further results
> 220 °C | – | Cl.Cl.Cl.Cn1c(CCc2ccc(CN)cc2)nc2cc(C(=O)NCCNc3ccccc3)ccc21 | –
230 °C | – | CCOC(=O)C(Cc1ccc(C(=N)N)cc1)N(C)C(=O)c1ccc2c(c1)nc(CCc1ccc(C(=N)N)cc1)n2C (centres unmarked) (as salt: formate) [Example 29, Ethyl 2-{2-[2-(4-Amidinophenyl)-ethyl]-1-methyl-benzimidazol-5-yl-carbonyl-(methylamino)}-3-(4-amidinophenyl)-propionate-formate] | –
158 °C | – | CC(=O)NCCCCC(NC(=O)c1ccc2c(c1)nc(CCc1ccc(C(=N)N)cc1)n2C)C(=O)O (centres unmarked) (as salt: formate) [Example 34] | –
185 °C | – | Cn1c(CCc2ccc(C(=N)N)cc2)nc2cc(C(=O)NCCC(c3ccccc3)c3ccccc3)ccc21 (as salt: hydrochloride) | –
> 220 °C | – | CN(Cc1cccnc1)C(=O)c1ccc2c(c1)nc(CCc1ccc(C(=N)N)cc1)n2C (as salt: hydrochloride) [Example 1, 2-[2-(4-Amidinophenyl)ethyl]-1-methyl-benzimidazol-5-yl-carboxylic Acid-N-(pyridin-3-yl-methyl)-N-methyl-amide-hydrochloride] | –
> 220 °C | – | CN(C)CCN(C)C(=O)c1ccc2c(c1)nc(CCc1ccc(C(=N)N)cc1)n2C (as salt: hydrochloride) [Example 3, 2-[2-(4-Amidinophenyl)-ethyl]1l-methyl-benzimidazol-5-yl-carboxylic Acid-N-[2-(N,N-dimethylamino)-ethyl]-N-methyl-amide-dihydrochlonide] | –
> 220 °C | – | CN(Cc1ccc(C(=N)N)cc1)C(=O)c1ccc2c(c1)nc(CCc1ccc(C(=N)N)cc1)n2C (as salt: hydrochloride) [Example 4, 2-[2-(4-Amidinophenyl)-ethyl]-1-methyl-benzimidazol-5-yl-carboxylic Acid-N-(4-amidino-benzyl)-N-methyl-amide-trihydrochloride] | –
> 220 °C | – | Cn1c(CCc2ccc(C(=N)N)cc2)nc2cc(C(=O)N(CCC(=N)N)Cc3cnc4ccccc4c3)ccc21 (as salt: hydrochloride) [Example 8, 2-[2-(4-Amidinophenyl)-ethyl]-1-methyl-benzimidazol-5-yl-carboxylic Acid-N-(2-amidinoethyl)-N-(quinolin-3-yl-methyl)-amide-dihydrochloride] | –
> 220 °C | – | Cn1c(CCc2ccc(C(=N)N)cc2)nc2cc(C(=O)N(CCC(=N)N)Cc3ccccc3)ccc21 (as salt: hydrochloride) [Example 9, 2-[2-(4-Amidinophenyl)-ethyl]-1-methyl-benzimidazol-5-yl-carboxylic Acid-N-(2-amidinoethyl)-N-benzyl-amide-dihydrochloride] | –
225 to 228 °C | – | Cn1c(CCc2ccc(C(=N)N)cc2)nc2cc(C(=O)N(CCC(=N)N)Cc3cccnc3)ccc21 (as salt: hydrochloride) [Example 10, 2-[2-(4-Amidinophenyl)-ethyl]-1-methyl-benzimidazol-5-yl-carboxylic Acid-N-(2-amidinoethyl)-N-(3-pyridylmethyl)-amide-dihydrochloride] | –
204 to 210 °C | – | CC(C)CN(CCC(=N)N)C(=O)c1ccc2c(c1)nc(CCc1ccc(C(=N)N)cc1)n2C (as salt: hydrochloride) [Example 11, 2-[2-(4-Amidinophenyl)-ethyl]-1-methyl-benzimidazol-5-yl-carboxylic Acid-N-(2-amidinoethyl)-N-iso-butyl-amide-dihydrochloride] | –
> 220 °C | – | CN(C(=O)c1ccc2c(c1)nc(CCc1ccc(C(=N)N)cc1)n2C)c1cccnc1 (as salt: hydrochloride) [Example 18, 2-[2-(4-Amidinophenyl)-ethyl]-1-methyl-benzimidazol-5-yl-carboxylic Acid-N-methyl-N-(3-pyridyl)-amide-hydrochloride] | –
185 to 190 °C | – | Cn1c(CCc2ccc(C(=N)N)cc2)nc2cc(C(=O)N(CCC(=N)N)CCc3ccccc3)ccc21 (as salt: hydrochloride) [Example 24, 2-[2-(4-Amidinophenyl)-ethyl]-1-methyl-benzimidazol-5-yl-carboxylic Acid-N-(2-amidinoethyl)-N-(2-phenylethyl)-amide-dihydrochloride] | –
200 to 210 °C | – | Cn1c(CCc2ccc(C(=N)N)cc2)nc2cc(C(=O)N(CCC(=N)N)C3CCCCCCC3)ccc21 (as salt: hydrochloride) [Example 25, 2-[2-(4-Amidinophenyl)-ethyl]-1-methyl-benzimidazol-5-yl-carboxylic Acid-N-(2-amidinoethyl)-N-cyclooctyl-amide-dihydrochloride] | –
– | – | N=C(N)c1ccc(CCc2nc3cc(C(=O)N(CCN)Cc4cccc(C(F)(F)F)c4)ccc3n2CC2CC2)cc1 [Example 394, 2-[2-(4-amidinophenyl)ethyl]-1-cyclopropylmethyl-benzimidazol-5-yl-carboxyiic acid-N-(2-aminoethyl)-N-(3-trifluoromethylbenzyl)-amide] | % Inhibition (10 μM) (rh beta tryptase; [1]): 52%
– | 52% | Cc1ccccc1N1CCN(CCCn2c(CCc3ccc(C(=N)N)cc3)nc3cc(C(=O)N(CCN)Cc4cccc(C(F)(F)F)c4)ccc32)CC1 [Example 400, 2-[2-(4-amidinophenyl)ethyl]-1-{3-[4-(2-methylphenyl)-piperazin-1-yl]-propyl}-benzimidazol-5-yl-carboxylic acid-N-(2-aminoethyl)-N-(3-trifluoromethylbenzyl)-amide] | –
– | 51% | N=C(N)c1ccc(CCc2nc3cc(C(=O)N(CCN)Cc4cccc(C(F)(F)F)c4)ccc3n2CC2CCCO2)cc1 (centres unmarked) [Example 402, 2-[2-(4-amidinophenyl)ethyl]-1-(tetrahydrofuran-2-yl-methyl)-benzimidazol-5-yl-carboxylic acid-N-(2-aminoethyl)-N-(3-trifluoromethylbenzyl)-amide] | –
– | 54% | CCOCCCn1c(CCc2ccc(C(=N)N)cc2)nc2cc(C(=O)N(CCN)Cc3ccccc3F)ccc21 [Example 406, 2-[2-(4-amidinophenyl)ethyl]-1-(3-ethoxypropyl)-benzimidazol-5-yl-carboxylic acid-N-(2-aminoethyl)-N-(2-fluorobenzyl)-amide] | IC50 (rh beta tryptase): 392 nM
– | – | N=C(N)c1ccc(CCc2nc3cc(C(=O)N(CCN)Cc4ccccc4F)ccc3n2CC2CC2)cc1 [Example 410, 2-[2-(4-amidinophenyl)ethyl]-1-cyclopropylmethyl-benzimidazol-5-yl-carboxylic acid-N-(2-aminoethyl)-N-(2-fluorobenzyl)-amide] | IC50 (rh beta tryptase): 626 nM
– | 58% | CCOCCCn1c(CCc2ccc(C(=N)N)cc2)nc2cc(C(=O)N(CCN)Cc3ccc4ccccc4c3)ccc21 [Example 422, 2-[2-(4-amidinophenyl)ethyl]-1-(3-ethoxypropyl)-benzimidazol-5-yl-carboxyiic acid-N-(2-aminoethyl)-N-(2-naphthylmethyl)-amide] | IC50 (rh beta tryptase): 364 nM
– | 59% | CCOCCCn1c(CCc2ccc(C(=N)N)cc2)nc2cc(C(=O)N(Cc3ccc(CN)cc3)Cc3ccc(C(=O)OC)cc3)ccc21 [Example 438, 2-[2-(4-amidinophenyl)ethyl]-1-(3-ethoxypropyl)-benzimidazol-5-yl-carboxylic acid-N-[4-(amino-methyl)-benzyl]-N-[4-(methoxycarbonyl)-benzyl]-amide] | –
– | 64% | COC(=O)c1ccc(CN(Cc2ccc(CN)cc2)C(=O)c2ccc3c(c2)nc(CCc2ccc(C(=N)N)cc2)n3CCCNC(=O)Cc2ccccc2)cc1 [Example 440, 2-[2-(4-amidinophenyl)ethyl]-1-[3-(benzylcarbonylamino)-propyl]-benzimidazol-5-yl-carboxylic acid-N-[4-(amino-methyl)-benzyl]-N-[4-(methoxycarbonyl)-benzyl]-amide] | –
– | 59% | COC(=O)c1ccc(CN(Cc2ccc(CN)cc2)C(=O)c2ccc3c(c2)nc(CCc2ccc(C(=N)N)cc2)n3CC2CC2)cc1 [Example 442, 2-[2-(4-amidinophenyl)ethyl]-1-cyclopropylmethyl-benzimidazol-5-yl-carboxylic acid-N-[4-(amino-methyl)-benzyl]-N-[4-(methoxycarbonyl)-benzyl]-amide] | –
– | 52% | COC(=O)c1ccc(CN(Cc2ccc(CN)cc2)C(=O)c2ccc3c(c2)nc(CCc2ccc(C(=N)N)cc2)n3CCc2ccccc2)cc1 [Example 443, 2-[2-(4-amidinophenyl)ethyl]-1-(2-phenylethyl)-benzimidazol-5-yl-carboxylic acid-N-[4-(amino-methyl)-benzyl]-N-[4-(methoxycarbonyl)-benzyl]-amide] | –
– | 53% | COC(=O)c1ccc(CN(Cc2ccc(CN)cc2)C(=O)c2ccc3c(c2)nc(CCc2ccc(C(=N)N)cc2)n3CCc2ccc(Cl)cc2)cc1 [Example 444, 2-[2-(4-amidinophenyl)ethyl]-1-[2-(4-chlorophenyl)ethyl]-benzimidazol-5-yl-carboxylic acid-N-[4-(amino-methyl)-benzyl]-N-[4-(methoxycarbonyl)-benzyl]-amide] | –
– | 52% | COC(=O)c1ccc(CN(Cc2ccc(CN)cc2)C(=O)c2ccc3c(c2)nc(CCc2ccc(C(=N)N)cc2)n3Cc2ccc(C)cc2)cc1 [Example 445, 2-[2-(4-amidinophenyl)ethyl]-1-(4-methylbenzyl)-benzimidazol-5-yl-carboxylic acid-N-[4-(amino-methyl)-benzyl]-N-[4-(methoxycarbonyl)-benzyl]-amide] | –
– | 72% | COC(=O)c1ccc(CN(Cc2ccc(CN)cc2)C(=O)c2ccc3c(c2)nc(CCc2ccc(C(=N)N)cc2)n3CC2CCCO2)cc1 (centres unmarked) [Example 450, 2-[2-(4-amidinophenyl)ethyl]-1-(tetrahydrofuran-2-yl-methyl)-benzimidazol-5-yl-carboxylic acid-N-[4-(amino-methyl)-benzyl]-N-[4-(methoxycarbonyl)-benzyl]-amide] | –
